Measurements taken from ChEMBL document CHEMBL4699602, “Stapled and Xenopus Glucagon-Like Peptide 1 (GLP-1)-Based Dual GLP-1/Gastrin Receptor Agonists with Improved Metabolic Benefits in Rodent Models of Obesity and Diabetes” (J Med Chem, 2020).
Active and inactive are the calls of the source. The rule behind the calls is not given here. *1 amine or outer side, *2 acyl side, *3 side chain or, on linkers, in order; H or OH if unused. Where a SMILES comes first, the peptide text is derived from it. Bridges are numbered along the chain shown (N, C = ends). [ ]: non-standard residue; d: D form. X5 = O=C(O)CCCCCCCCCCCCCCCCC(=O)NC(CCC(=O)NCCOCCOCC(=O)NCCOCCOCC(=O)NCCCCCCNC(=O)C(CCCCNC(=O)CCN1C(=O)CC([*:2])C1=O)NC(=O)CCN1C(=O)CC([*:1])C1=O)C(=O)O; Aib = CC(C)(N)C(=O)O

Tests used:
serum albumin = serum albumin (Homo sapiens, UniProt P02768); assay: Binding affinity to human serum albumin in PBS pH 7.4 at 100 ug/mL incubated for 2 hrs by LC-MS/MS analysis relative to control; assay type: ADME; conditions: at 100 µg/mL, read-out: PB (converted)
serum albumin, sequence (P02768 whole entry): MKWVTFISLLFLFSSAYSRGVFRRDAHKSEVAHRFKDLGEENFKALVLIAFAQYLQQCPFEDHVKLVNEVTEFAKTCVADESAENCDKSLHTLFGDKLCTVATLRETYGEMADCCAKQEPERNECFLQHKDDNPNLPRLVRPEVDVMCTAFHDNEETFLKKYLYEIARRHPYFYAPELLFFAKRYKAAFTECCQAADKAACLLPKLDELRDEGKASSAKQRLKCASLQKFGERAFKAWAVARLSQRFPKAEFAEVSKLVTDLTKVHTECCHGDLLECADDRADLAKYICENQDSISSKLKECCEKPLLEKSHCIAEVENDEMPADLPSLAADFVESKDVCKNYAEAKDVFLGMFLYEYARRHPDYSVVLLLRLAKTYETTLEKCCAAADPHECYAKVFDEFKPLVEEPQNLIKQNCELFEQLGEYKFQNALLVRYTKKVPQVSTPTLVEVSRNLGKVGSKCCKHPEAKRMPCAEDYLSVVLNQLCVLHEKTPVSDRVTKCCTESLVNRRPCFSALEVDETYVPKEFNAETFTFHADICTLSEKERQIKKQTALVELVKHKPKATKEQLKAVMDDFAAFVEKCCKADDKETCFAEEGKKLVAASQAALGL

Mus musculus [1] = assay: Reduction in fasted hyperglycemia in C57BL/6 mouse model of diet induced obesity at 25 nmol/kg, sc BID for 1 week relative to control; assay type: functional, organism-based; conditions: time 1.0 weeks
[2] = biological target: T1, Glucagon-like peptide 1 receptor (Homo sapiens, UniProt P43220); assay: Agonist activity at human GLP-1R expressed in HEK293 cells assessed as stimulation of cAMP accumulation incubated for 20 mins in presence of 0% HSA; assay type: functional, cell-based
T1 sequence (P43220 whole entry): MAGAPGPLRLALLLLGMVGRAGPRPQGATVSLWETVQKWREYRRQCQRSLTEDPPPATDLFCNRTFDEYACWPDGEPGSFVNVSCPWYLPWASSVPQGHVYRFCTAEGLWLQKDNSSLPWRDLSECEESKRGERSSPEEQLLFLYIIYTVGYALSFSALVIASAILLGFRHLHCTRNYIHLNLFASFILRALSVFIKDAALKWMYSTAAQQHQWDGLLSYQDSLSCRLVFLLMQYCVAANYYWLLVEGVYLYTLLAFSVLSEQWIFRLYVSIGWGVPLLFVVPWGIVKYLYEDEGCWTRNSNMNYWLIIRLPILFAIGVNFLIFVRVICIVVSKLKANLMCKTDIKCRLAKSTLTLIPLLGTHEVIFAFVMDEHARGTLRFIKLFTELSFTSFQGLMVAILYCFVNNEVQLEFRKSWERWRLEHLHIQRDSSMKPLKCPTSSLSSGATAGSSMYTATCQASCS

[3] = biological target: T1, Glucagon-like peptide 1 receptor; assay: Ratio of EC50 for agonist activity at human GLP-1R expressed in HEK293 cells in presence of 4.4% HSA to EC50 for agonist activity at human GLP-1R expressed in HEK293 cells in presence of 0% HSA; assay type: cell-based
Mus musculus [4] = assay: Hypoglycemic activity in non-fasted db/db mouse assessed as decrease in blood glucose concentration at 25 nmol/kg, sc by OGTT method; assay type: functional, organism-based
[5] = biological target: T1, Glucagon-like peptide 1 receptor; assay: Agonist activity at human GLP-1R expressed in HEK293 cells assessed as stimulation of cAMP accumulation incubated for 20 mins in presence of 4.4% HSA; assay type: functional, cell-based
Mus musculus [6] = assay: Reduction in body weight in C57BL/6 mouse model of diet induced obesity at 25 nmol/kg, sc BID for 1 week relative to control; assay type: functional; design: scale not given: the % may be the effect or the level left; conditions: time 1 weeks
Mus musculus [7] = assay: Reduction in food intake in C57BL/6 mouse model of diet induced obesity at 25 nmol/kg, sc BID for 1 week relative to control; assay type: functional, organism-based; conditions: time 1.0 weeks
Mus musculus [8] = assay: Reduction in body weight in C57BL/6 mouse model of diet induced obesity at 25 nmol/kg, sc dosed every 2 days for 1 week relative to control; assay type: functional; design: scale not given: the % may be the effect or the level left; conditions: time 1 weeks
Mus musculus [9] = assay: Reduction in fasted hyperglycemia in C57BL/6 mouse model of diet induced obesity at 25 nmol/kg, sc dosed every 2 days for 1 week relative to control; assay type: functional, organism-based; conditions: time 1.0 weeks
Mus musculus [10] = assay: Hypoglycemic activity in non-fasted db/db mouse assessed as duration of time during which decrease in blood glucose concentration is observed at 25 nmol/kg, sc by OGTT method; assay type: functional
Mus musculus [11] = assay: Reduction in food intake in C57BL/6 mouse model of diet induced obesity at 25 nmol/kg, sc dosed every 2 days for 1 week relative to control; assay type: functional, organism-based; conditions: time 1.0 weeks

Molecule	fraction unbound at 2 h, 100 ug/mL (serum albumin)	Activity (Mus musculus [1])	EC50 [2]	Ratio EC50 [3]	Activity (Mus musculus [4])	EC50 [5]	Activity (Mus musculus [6])	Activity (Mus musculus [7])	Activity (Mus musculus [8])	Activity (Mus musculus [9])	Time (Mus musculus [10])	Activity (Mus musculus [11])
CCCCCCCCCCCCCCCC(=O)NCCCCCCNC(=O)C1CCCCNC(=O)CCN2C(=O)CC(SC[C@H](NC(=O)[C@H](Cc3ccc(O)cc3)NC(=O)[C@H](CCC(=O)O)NC(=O)[C@@H](NC(=O)[C@@H](NC(=O)[C@H](CC(=O)O)NC(=O)[C@H](CC(N)=O)NC(=O)[C@@H](NC(=O)[C@H](Cc3ccc(O)cc3)NC(=O)[C@@H](NC(=O)CNC(=O)[C@H](CCC(=O)O)NC(=O)C(C)(C)NC(=O)[C@@H](N)Cc3c[nH]cn3)[C@@H](C)O)[C@@H](C)O)C(C)C)[C@@H](C)O)C(=O)N[C@@H](CCC(=O)O)C(=O)N[C@@H](CCC(=O)O)C(=O)N[C@@H](CCC(=O)O)C(=O)N[C@@H](C)C(=O)N[C@@H](C)C(=O)N[C@@H](CCCCN)C(=O)N[C@H](C(=O)N[C@@H](Cc3ccccc3)C(=O)N[C@H](C(=O)N[C@@H](CCC(=O)O)C(=O)N[C@@H](Cc3c[nH]c4ccccc34)C(=O)N[C@@H](CC(C)C)C(=O)N[C@H](C(=O)N[C@@H](CCCCN)C(=O)NCC(=O)N[C@@H](CCCCN)C(=O)N3CCC[C@H]3C(=O)N[C@@H](CO)C(=O)N[C@@H](CO)C(=O)NCC(=O)N[C@@H](C)C(=O)N3CCC[C@H]3C(=O)N3CCC[C@H]3C(=O)N3CCC[C@H]3C(=O)N[C@@H](CO)C(N)=O)[C@@H](C)CC)[C@@H](C)CC)CSC3CC(=O)N(CCC(=O)N1)C3=O)C2=O (some centres not stated) (HELM PEPTIDE1{H.[Aib].E.G.T.Y.T.N.D.V.T.E.Y.C.E.E.E.A.A.K.C.F.I.E.W.L.I.K.G.K.P.S.S.G.A.P.P.P.S.[am]}|CHEM1{[CCCCCCCCCCCCCCCC(=O)NCCCCCCNC(=O)C(CCCCNC(=O)CCN1C(=O)CC([*:1])C1=O)NC(=O)CCN1C(=O)CC([*:2])C1=O]}$PEPTIDE1,CHEM1,14:R3-1:R1|PEPTIDE1,CHEM1,21:R3-1:R2$$$V2.0)	0.162	Active	41 pM	22.2	Active	910 pM	14.4%	Active				
CC[C@H](C)[C@H](NC(=O)[C@H](CC(C)C)NC(=O)[C@H](Cc1c[nH]c2ccccc12)NC(=O)[C@H](CCC(=O)O)NC(=O)[C@@H](NC(=O)[C@H](Cc1ccccc1)NC(=O)[C@@H]1CSC2CC(=O)N(CCC(=O)NC(C(=O)NCCCCCCNC(=O)COCCOCCNC(=O)COCCOCCNC(=O)CCC(NC(=O)CCCCCCCCCCCCCCCCC(=O)O)C(=O)O)CCCCNC(=O)CCN3C(=O)CC(SC[C@H](NC(=O)[C@H](Cc4ccc(O)cc4)NC(=O)[C@H](CCC(=O)O)NC(=O)[C@@H](NC(=O)[C@@H](NC(=O)[C@H](CC(=O)O)NC(=O)[C@H](CC(N)=O)NC(=O)[C@@H](NC(=O)[C@H](Cc4ccc(O)cc4)NC(=O)[C@@H](NC(=O)CNC(=O)[C@H](CCC(=O)O)NC(=O)C(C)(C)NC(=O)[C@@H](N)Cc4c[nH]cn4)[C@@H](C)O)[C@@H](C)O)C(C)C)[C@@H](C)O)C(=O)N[C@@H](CCC(=O)O)C(=O)N[C@@H](CCC(=O)O)C(=O)N[C@@H](CCC(=O)O)C(=O)N[C@@H](C)C(=O)N[C@@H](C)C(=O)N[C@@H](CCCCN)C(=O)N1)C3=O)C2=O)[C@@H](C)CC)C(=O)N[C@@H](CCCCN)C(=O)NCC(=O)N[C@@H](CCCCN)C(=O)N1CCC[C@H]1C(=O)N[C@@H](CO)C(=O)N[C@@H](CO)C(=O)NCC(=O)N[C@@H](C)C(=O)N1CCC[C@H]1C(=O)N1CCC[C@H]1C(=O)N1CCC[C@H]1C(=O)N[C@@H](CO)C(N)=O (some centres not stated) (HELM PEPTIDE1{H.[Aib].E.G.T.Y.T.N.D.V.T.E.Y.C.E.E.E.A.A.K.C.F.I.E.W.L.I.K.G.K.P.S.S.G.A.P.P.P.S.[am]}|CHEM1{[O=C(O)CCCCCCCCCCCCCCCCC(=O)NC(CCC(=O)NCCOCCOCC(=O)NCCOCCOCC(=O)NCCCCCCNC(=O)C(CCCCNC(=O)CCN1C(=O)CC([*:1])C1=O)NC(=O)CCN1C(=O)CC([*:2])C1=O)C(=O)O]}$PEPTIDE1,CHEM1,14:R3-1:R1|PEPTIDE1,CHEM1,21:R3-1:R2$$$V2.0)	0.047		25 pM	108	Active	2700 pM			13.8%	Active	24 h	
CC[C@H](C)[C@H](NC(=O)[C@H](CC(C)C)NC(=O)[C@H](Cc1c[nH]c2ccccc12)NC(=O)[C@H](CCC(=O)O)NC(=O)[C@@H](NC(=O)[C@H](Cc1ccccc1)NC(=O)[C@@H]1CSC2CC(=O)N(CCC(=O)NC(C(=O)NCCCCCCNC(=O)COCCOCCNC(=O)CCC(NC(=O)CCCCCCCCCCCCCCCCC(=O)O)C(=O)O)CCCCNC(=O)CCN3C(=O)CC(SC[C@H](NC(=O)[C@H](Cc4ccc(O)cc4)NC(=O)[C@H](CCC(=O)O)NC(=O)[C@@H](NC(=O)[C@@H](NC(=O)[C@H](CC(=O)O)NC(=O)[C@H](CC(N)=O)NC(=O)[C@@H](NC(=O)[C@H](Cc4ccc(O)cc4)NC(=O)[C@@H](NC(=O)CNC(=O)[C@H](CCC(=O)O)NC(=O)C(C)(C)NC(=O)[C@@H](N)Cc4c[nH]cn4)[C@@H](C)O)[C@@H](C)O)C(C)C)[C@@H](C)O)C(=O)N[C@@H](CCC(=O)O)C(=O)N[C@@H](CCC(=O)O)C(=O)N[C@@H](CCC(=O)O)C(=O)N[C@@H](C)C(=O)N[C@@H](C)C(=O)N[C@@H](CCCCN)C(=O)N1)C3=O)C2=O)[C@@H](C)CC)C(=O)N[C@@H](CCCCN)C(=O)NCC(=O)N[C@@H](CCCCN)C(N)=O (some centres not stated) (HELM PEPTIDE1{H.[Aib].E.G.T.Y.T.N.D.V.T.E.Y.C.E.E.E.A.A.K.C.F.I.E.W.L.I.K.G.K.[am]}|CHEM1{[O=C(O)CCCCCCCCCCCCCCCCC(=O)NC(CCC(=O)NCCOCCOCC(=O)NCCCCCCNC(=O)C(CCCCNC(=O)CCN1C(=O)CC([*:1])C1=O)NC(=O)CCN1C(=O)CC([*:2])C1=O)C(=O)O]}$PEPTIDE1,CHEM1,14:R3-1:R1|PEPTIDE1,CHEM1,21:R3-1:R2$$$V2.0)	0.074		59 pM	47.5	Active	2800 pM			9.8%	Active	24 h	Active
CC[C@H](C)[C@@H]1NC(=O)[C@H](CC(C)C)NC(=O)[C@H](Cc2c[nH]c3ccccc23)NC(=O)[C@H](CCC(=O)O)NC(=O)[C@H]([C@@H](C)CC)NC(=O)[C@H](Cc2ccccc2)NC(=O)[C@@H](NC(=O)[C@H](CCCCN)NC(=O)[C@H](C)NC(=O)[C@H](C)NC(=O)[C@H](CCC(=O)O)NC(=O)[C@H](CCC(=O)O)NC(=O)[C@H](CCC(=O)O)NC(=O)[C@H](CC(C)C)NC(=O)[C@H](Cc2ccc(O)cc2)NC(=O)[C@H](CCC(=O)O)NC(=O)[C@@H](NC(=O)[C@@H](NC(=O)[C@H](CC(=O)O)NC(=O)[C@H](CC(N)=O)NC(=O)[C@@H](NC(=O)[C@H](Cc2ccc(O)cc2)NC(=O)[C@@H](NC(=O)CNC(=O)[C@H](CCC(=O)O)NC(=O)C(C)(C)NC(=O)[C@@H](N)Cc2c[nH]cn2)[C@@H](C)O)[C@@H](C)O)C(C)C)[C@@H](C)O)CSC2CC(=O)N(CCC(=O)NC(C(=O)NCCCCCCNC(=O)COCCOCCNC(=O)CCC(NC(=O)CCCCCCCCCCCCCCCCC(=O)O)C(=O)O)CCCCNC(=O)CCN3C(=O)CC(SC[C@@H](C(=O)NCC(=O)N[C@@H](CCCCN)C(N)=O)NC1=O)C3=O)C2=O (some centres not stated) (HELM PEPTIDE1{H.[Aib].E.G.T.Y.T.N.D.V.T.E.Y.L.E.E.E.A.A.K.C.F.I.E.W.L.I.C.G.K.[am]}|CHEM1{[O=C(O)CCCCCCCCCCCCCCCCC(=O)NC(CCC(=O)NCCOCCOCC(=O)NCCCCCCNC(=O)C(CCCCNC(=O)CCN1C(=O)CC([*:2])C1=O)NC(=O)CCN1C(=O)CC([*:1])C1=O)C(=O)O]}$PEPTIDE1,CHEM1,21:R3-1:R1|PEPTIDE1,CHEM1,28:R3-1:R2$$$V2.0)	0.084		69 pM	55.1	Active	3800 pM			13.4%	Active	24 h	Active
H-H[Aib]EGTYTNDVTEYLEEEAAKCFIEWLICGKPSSGAPPSKKKKKK-NH2 (linker 21-28 via X5)	0.033		34 pM	79.4	Active	2700 pM			10.6%	Active	24 h	
